Reference: the Kinase Knowledgebase extract (Sharma et al. 2016)

Key:
Assay in all cases: Enzyme Assay
PIK3CD (Human) = PIK3CD (Human) (UniProt O00329)
PIK3CA (human) = PIK3CA (human) (UniProt P42336)
PIK3CB (Human) = PIK3CB (Human) (UniProt P42338)
PIK3CG (human) = PIK3CG (human) (UniProt P48736)
PIK3CG (human), sequence (P48736 whole entry, looked up): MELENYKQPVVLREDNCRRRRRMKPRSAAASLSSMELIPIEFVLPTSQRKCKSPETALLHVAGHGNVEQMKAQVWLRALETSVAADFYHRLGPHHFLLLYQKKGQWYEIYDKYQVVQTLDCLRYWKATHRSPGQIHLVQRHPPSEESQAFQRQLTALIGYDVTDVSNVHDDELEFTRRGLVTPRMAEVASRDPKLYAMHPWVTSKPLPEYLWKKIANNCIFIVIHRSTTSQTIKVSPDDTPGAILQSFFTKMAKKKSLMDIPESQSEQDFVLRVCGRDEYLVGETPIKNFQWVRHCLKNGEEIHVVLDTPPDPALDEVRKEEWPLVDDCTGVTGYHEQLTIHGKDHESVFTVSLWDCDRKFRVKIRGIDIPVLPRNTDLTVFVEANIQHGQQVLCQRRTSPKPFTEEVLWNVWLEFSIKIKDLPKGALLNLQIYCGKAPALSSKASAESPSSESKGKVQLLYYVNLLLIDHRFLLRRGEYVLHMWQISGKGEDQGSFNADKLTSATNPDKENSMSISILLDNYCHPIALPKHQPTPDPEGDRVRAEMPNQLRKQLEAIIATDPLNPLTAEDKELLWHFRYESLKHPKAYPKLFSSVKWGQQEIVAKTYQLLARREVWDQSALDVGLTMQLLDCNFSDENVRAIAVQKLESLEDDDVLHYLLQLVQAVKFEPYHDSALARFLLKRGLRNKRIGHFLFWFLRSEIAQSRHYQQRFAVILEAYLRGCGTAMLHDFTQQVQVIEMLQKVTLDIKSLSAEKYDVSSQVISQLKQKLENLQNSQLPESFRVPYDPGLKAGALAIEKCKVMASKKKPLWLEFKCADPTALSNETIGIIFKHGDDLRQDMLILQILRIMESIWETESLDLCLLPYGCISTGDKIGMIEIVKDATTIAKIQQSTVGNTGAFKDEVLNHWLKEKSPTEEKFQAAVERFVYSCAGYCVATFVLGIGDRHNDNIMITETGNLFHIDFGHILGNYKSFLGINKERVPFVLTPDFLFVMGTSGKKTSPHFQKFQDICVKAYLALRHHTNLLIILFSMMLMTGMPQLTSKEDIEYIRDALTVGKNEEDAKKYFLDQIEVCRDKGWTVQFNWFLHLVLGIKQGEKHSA

PIK3CB (Human), sequence (P42338 whole entry, looked up): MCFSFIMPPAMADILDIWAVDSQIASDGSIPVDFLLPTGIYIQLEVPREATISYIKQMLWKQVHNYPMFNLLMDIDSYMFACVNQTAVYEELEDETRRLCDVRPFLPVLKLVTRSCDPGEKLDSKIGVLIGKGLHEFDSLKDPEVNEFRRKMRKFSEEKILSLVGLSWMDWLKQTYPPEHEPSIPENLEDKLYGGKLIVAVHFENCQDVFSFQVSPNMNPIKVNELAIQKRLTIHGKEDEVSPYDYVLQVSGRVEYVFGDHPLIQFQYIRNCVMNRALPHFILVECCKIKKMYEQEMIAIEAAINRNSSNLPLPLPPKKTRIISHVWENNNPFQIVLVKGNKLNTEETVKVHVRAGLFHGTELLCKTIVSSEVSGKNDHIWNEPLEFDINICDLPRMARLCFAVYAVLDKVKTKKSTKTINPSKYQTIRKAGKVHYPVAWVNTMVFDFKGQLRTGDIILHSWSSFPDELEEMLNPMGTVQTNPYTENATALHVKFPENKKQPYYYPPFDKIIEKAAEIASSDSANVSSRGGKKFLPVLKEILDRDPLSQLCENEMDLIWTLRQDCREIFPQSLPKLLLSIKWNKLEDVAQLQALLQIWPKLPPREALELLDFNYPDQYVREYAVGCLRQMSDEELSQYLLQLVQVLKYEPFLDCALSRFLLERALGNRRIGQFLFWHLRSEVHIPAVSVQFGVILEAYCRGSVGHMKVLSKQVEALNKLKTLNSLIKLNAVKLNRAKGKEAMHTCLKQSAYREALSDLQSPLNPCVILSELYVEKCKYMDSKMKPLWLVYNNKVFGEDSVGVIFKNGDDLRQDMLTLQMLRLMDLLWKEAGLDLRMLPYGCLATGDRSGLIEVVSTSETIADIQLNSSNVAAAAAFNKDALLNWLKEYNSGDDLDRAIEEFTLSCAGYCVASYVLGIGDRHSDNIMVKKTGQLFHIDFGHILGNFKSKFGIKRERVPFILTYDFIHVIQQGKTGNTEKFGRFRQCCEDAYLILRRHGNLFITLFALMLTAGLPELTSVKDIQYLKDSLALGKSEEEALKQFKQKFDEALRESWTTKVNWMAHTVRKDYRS
PIK3CA (human), sequence (P42336 whole entry, looked up): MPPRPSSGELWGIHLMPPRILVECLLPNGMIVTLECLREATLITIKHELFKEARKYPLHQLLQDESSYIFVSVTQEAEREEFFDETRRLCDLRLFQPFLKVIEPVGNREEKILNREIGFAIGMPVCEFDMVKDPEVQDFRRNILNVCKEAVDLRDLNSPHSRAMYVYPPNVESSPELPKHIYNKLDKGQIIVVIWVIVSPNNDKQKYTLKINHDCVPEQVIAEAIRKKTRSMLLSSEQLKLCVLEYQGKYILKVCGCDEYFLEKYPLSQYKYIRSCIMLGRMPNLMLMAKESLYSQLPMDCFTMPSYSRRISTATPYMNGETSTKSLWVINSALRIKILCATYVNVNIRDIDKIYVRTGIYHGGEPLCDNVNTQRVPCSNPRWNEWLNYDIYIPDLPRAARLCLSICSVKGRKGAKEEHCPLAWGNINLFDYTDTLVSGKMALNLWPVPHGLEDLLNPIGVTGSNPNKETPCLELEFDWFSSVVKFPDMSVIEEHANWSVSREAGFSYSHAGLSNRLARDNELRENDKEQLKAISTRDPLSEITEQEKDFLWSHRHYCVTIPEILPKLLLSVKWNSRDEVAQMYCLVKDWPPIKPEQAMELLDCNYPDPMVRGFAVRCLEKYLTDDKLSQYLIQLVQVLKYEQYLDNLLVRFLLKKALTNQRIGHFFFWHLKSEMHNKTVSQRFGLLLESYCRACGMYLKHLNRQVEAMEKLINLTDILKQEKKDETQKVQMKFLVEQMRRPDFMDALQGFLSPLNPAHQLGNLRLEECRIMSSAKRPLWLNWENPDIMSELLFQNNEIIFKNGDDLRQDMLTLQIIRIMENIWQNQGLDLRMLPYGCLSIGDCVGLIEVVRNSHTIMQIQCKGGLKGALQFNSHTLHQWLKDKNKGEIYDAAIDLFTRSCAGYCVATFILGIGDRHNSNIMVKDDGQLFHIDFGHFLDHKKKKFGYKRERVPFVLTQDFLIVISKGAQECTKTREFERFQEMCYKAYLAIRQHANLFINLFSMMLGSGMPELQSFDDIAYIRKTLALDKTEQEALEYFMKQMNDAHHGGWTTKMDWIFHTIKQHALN
PIK3CD (Human), sequence (O00329 whole entry, looked up): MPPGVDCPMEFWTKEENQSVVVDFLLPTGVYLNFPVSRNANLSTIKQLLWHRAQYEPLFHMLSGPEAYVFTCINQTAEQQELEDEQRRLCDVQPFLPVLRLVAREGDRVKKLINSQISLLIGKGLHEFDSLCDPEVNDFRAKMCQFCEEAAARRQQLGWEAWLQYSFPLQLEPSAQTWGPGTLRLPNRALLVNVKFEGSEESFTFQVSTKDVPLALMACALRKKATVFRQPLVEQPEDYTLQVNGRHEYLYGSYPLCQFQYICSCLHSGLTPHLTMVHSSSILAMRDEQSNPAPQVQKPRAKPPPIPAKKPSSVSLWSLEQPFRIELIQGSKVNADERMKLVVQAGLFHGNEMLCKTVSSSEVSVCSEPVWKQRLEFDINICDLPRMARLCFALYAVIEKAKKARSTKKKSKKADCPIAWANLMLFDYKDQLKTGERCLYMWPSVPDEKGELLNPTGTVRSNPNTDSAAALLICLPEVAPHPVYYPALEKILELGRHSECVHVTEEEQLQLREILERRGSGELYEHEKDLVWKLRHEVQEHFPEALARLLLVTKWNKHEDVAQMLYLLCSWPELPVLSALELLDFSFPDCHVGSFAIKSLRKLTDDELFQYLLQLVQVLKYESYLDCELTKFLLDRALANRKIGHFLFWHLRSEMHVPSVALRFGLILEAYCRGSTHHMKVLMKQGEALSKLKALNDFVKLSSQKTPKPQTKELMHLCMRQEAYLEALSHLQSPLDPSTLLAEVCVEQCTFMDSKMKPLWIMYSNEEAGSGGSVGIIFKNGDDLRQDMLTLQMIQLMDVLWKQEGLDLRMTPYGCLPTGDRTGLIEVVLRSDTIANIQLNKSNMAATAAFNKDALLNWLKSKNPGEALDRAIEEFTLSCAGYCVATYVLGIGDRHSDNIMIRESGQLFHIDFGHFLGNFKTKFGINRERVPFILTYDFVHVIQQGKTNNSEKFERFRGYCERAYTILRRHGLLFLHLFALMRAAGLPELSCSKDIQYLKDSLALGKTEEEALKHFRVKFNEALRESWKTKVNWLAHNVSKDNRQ

Row | SMILES | IC50 (PIK3CD (Human)) [µM] | IC50 (PIK3CA (human)) [µM] | IC50 (PIK3CB (Human)) [µM] | IC50 (PIK3CG (human)) [µM]
1 | Cc1cc(C(C)Nc2ccccc2)c2nc(N3CCOCC3)cc(=O)n2c1 (configuration not stated) | 0.376 | 5.07 |  | 
2 | O=C(C1CCNCC1)N1CCN(c2nc(-c3cccc(O)c3)nc(N3CCOCC3)n2)CC1 | 0.33 | 1.5 | 3.2 | 6.5
3 | CC(C)C[C@H](N)CC(=O)N1CCN(c2nc(-c3cccc(O)c3)nc(N3CCOCC3)n2)CC1 | 9.1 | 21 | 19 | > 100
4 | NCCCC(=O)N1CCN(c2nc(N3CCOCC3)nc(-n3c(C(F)F)nc4ccccc43)n2)CC1 | 0.077 | 0.85 | 0.081 | 7.5
5 | N[C@H](CC(=O)N1CCN(c2nc(-c3cccc(O)c3)nc(N3CCOCC3)n2)CC1)Cc1ccccc1 | 17 | 62 | 1.8 | > 100
6 | C[C@@H](N)CC(=O)N1CCN(c2nc(-c3cccc(O)c3)nc(N3CCOCC3)n2)CC1 | 1.3 | 2.2 | 1.7 | 16
7 | O=C(C[C@H]1CCCN1)N1CCN(c2nc(-c3cccc(O)c3)nc(N3CCOCC3)n2)CC1 | 0.026 | 4.4 | 1.6 | 5.5

The remaining lines, values ahead:

Row | IC50 (PIK3CD (Human)) [µM] | IC50 (PIK3CA (human)) [µM] | IC50 (PIK3CB (Human)) [µM] | IC50 (PIK3CG (human)) [µM] | SMILES
8 | 2.95 | 13 | 0.483 |  | CSCC[C@H](N)C(=O)N1CCN(c2nc(N3CCOCC3)nc(-n3c(C(F)F)nc4ccccc43)n2)CC1
9 |  |  | 78 | 58 | N[C@H](Cc1ccccc1)C(=O)N1CCN(c2nc(N3CCOCC3)nc(-n3c(C(F)F)nc4ccccc43)n2)CC1
10 | 8.9 | 19 | 0.19 | > 100 | N[C@@H](Cc1ccccc1)C(=O)N1CCN(c2nc(-c3cccc(O)c3)nc(N3CCOCC3)n2)CC1
11 | 2.8 | 26 | 7.1 | > 100 | N[C@H](CC(=O)N1CCN(c2nc(N3CCOCC3)nc(-n3c(C(F)F)nc4ccccc43)n2)CC1)Cc1ccccc1
12 |  |  |  | > 100 | N[C@@H](Cc1ccccc1)C(=O)N1CCN(c2nc(N3CCOCC3)nc(-n3c(C(F)F)nc4ccccc43)n2)CC1
13 | 1 |  | 0.067 | > 10 | CCC(C)[C@H](N)C(=O)N1CCN(c2nc(N3CCOCC3)nc(-n3c(C(F)F)nc4ccccc43)n2)CC1 (some centres not stated)
14 | 0.11 | 3 | 1.3 | 7.5 | C[C@H](N)CC(=O)N1CCN(c2nc(N3CCOCC3)nc(-n3c(C(F)F)nc4ccccc43)n2)CC1
